Tests used:
PC-12 cells = test: Bioactivity assay of released NGF, PC-12 differentiation; type: cell-based; settings: 4 days culture in supernatant of MurA-induced transfected hDFBs; p≦0.002
Protocol: PC-12 cells were obtained from ATCC (CRL-1721). PC-12 cells were maintained in F12k supplemented with 15% horse serum (Sigma, St. Louis, Mo.), 2.5% FBS, and penicillin-streptomycin-glutamine mixture (Gibco). For the NGF bioactivity assay, PC-12 cells were seeded at 10^2 cells/750 μL in 12-well plates.
NGF Bioactivity. Bioactivity assay of released NGF was assessed using PC-12 cells with their differentiation as the endpoint. PC-12 cells were incubated with PC.12 culture media (control) or media supernatants from transfected hDFBs in the presence of MurA (i.e., media with released NGF). Briefly, hDFBs were cultured and exposed to 3 μM Muristerone for 3 days in 12-well plates.
The media, theoretically with containing NGF released from transfected hDFBs, was then removed and used to culture PC-12 cells in 12-well plates. After 4 days, random images were digitized of each well and the number of differentiated and undifferentiated Data are reported as fraction of PC-12 cells that were differentiated.

[1] = tested on: right sciatic nerve defect; settings: rat, in vivo
Protocol: Surgical Technique. Twenty-one Sprague Dawley (250 gms) rats with a right sciatic nerve defect were implanted with the 12 mm PLLA conduits. […] Briefly the animals were anesthetized and maintained by a 0.4 cc intramuscular injection of a premixed solution containing 64 mg/ml ketamine HCL (Keta-Sthetic™ Boehringer Ingelheim, St Joseph, Mo.), 3.6 mg/ml xylazine (Rompun™ Miles Inc., Shawnee Mission, Kans.), and 0.07 mg/ml atropine sulfate (Elkins-Sinn Inc., Cherry Hill, N.J.). The skin from the clipped lateral thigh was scrubbed in a routine fashion with antiseptic solution. The incision extended from the greater trochanter to the midcalf distally. The sciatic and posterior tibial nerves were exposed by a muscle splitting incision. […]
The medical and lateral gastrocnemius muscle was harvested at 6 and 16 weeks and weighed in order to assess nerve reinnervation. […] The difference in weight of the containers before and after muscle placement determined the muscle weight.
Histological Assessment. […] Images of the histological sections were digitized using a CCD camera and subsequently analyzed using standard image processing and analysis techniques. […] The number of axons were counted to give the number of axons/mm^2. The area of each axon was determined, summed together, and expressed as area axons/image area to give the nerve fiber density. […]

## NGF secreted from hDFBs: nerve growth factor in media supernatants from transfected hDFBs in the presence of MurA
PC-12 cells
  PC-12 differentiation versus media alone: markedly higher levels

## poly (L-Lactic acid) [PLLA conduits]
[1]
  inflammatory reaction: No severe inflammatory reaction could be identified
  neuromas: no neuromas were apparent clinically

Reference: US20020137706A1, “Regulated growth factor delivery for engineered peripheral nerve” (priority 2000, published 2002)
